Results from PubChem BioAssay AID1963962 (Molecular Pharmacology Branch, DTP, NCI, 2024).

Test system: 967376-340-R-J2-PDC multicell spheroid viability
Assay: Anticancer human tumor 967376-340-R-J2-PDC patient-derived colon adenocarcinoma cell line growth inhibition [PI3K]
Conditions: for IC50: curve of first compound; for viability, T/C: stronger effect = lower value; active = viability on the fitted dose curve at most 10% of control; inactive = the rest
Procedure, shortened: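 Three cell types, namely tumor cells, endothelial cells and mesenchymal stem cells, formed each spheroid. Combinations with four PI3K inhibitors were screened at clinically achievable concentrations decreasing by half-log, and spheroid viability was recorded.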

[1] = second compound 0.0316 µM, first compound 0.0316 µM
[2] = second compound 0.0316 µM, first compound 0.1 µM
[3] = second compound 0.1 µM, first compound 0.0316 µM
[4] = second compound 0.1 µM, first compound 0.1 µM
[5] = second compound 0.316 µM, first compound 0.0316 µM
[6] = second compound 0.316 µM, first compound 0.1 µM
[7] = second compound 1 µM, first compound 0.0316 µM
[8] = second compound 1 µM, first compound 0.1 µM
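Also: spheroids exposed to agents for 7 days before read-out.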
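For viability, T/C in this document: luminescence used as surrogate of cell viability.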

C[C@@H](NC(=O)c1ncnc(N)c1Cl)c1ncc(C(=O)Nc2cc(C(F)(F)F)c(Cl)cn2)s1 + CC(Nc1ccc2c(c1)OCCn1cc(N3C(=O)OCC3C(F)F)nc1-2)C(N)=O
> 10000 nM: IC50 (second compound 0.00316 µM) | IC50 (second compound 0.01 µM) | IC50 (second compound 0.0316 µM) | IC50 (second compound 0.1 µM) | IC50 (second compound 0.316 µM) | IC50 (second compound 1 µM)
inactive: viability, T/C (second compound 0.00316 µM, first compound 0.0316 µM) 105% | viability, T/C (second compound 0.00316 µM, first compound 0.1 µM) 74.9% | viability, T/C (second compound 0.00316 µM, first compound 0.316 µM) 73.3% | viability, T/C (second compound 0.00316 µM, first compound 1 µM) 91.9% | viability, T/C (second compound 0.00316 µM, first compound 3.16 µM) 80.4% | viability, T/C (second compound 0.00316 µM, first compound 10 µM) 97.9% | viability, T/C (second compound 0.01 µM, first compound 0.0316 µM) 83.9% | viability, T/C (second compound 0.01 µM, first compound 0.1 µM) 98.7% | viability, T/C (second compound 0.01 µM, first compound 0.316 µM) 101% | viability, T/C (second compound 0.01 µM, first compound 1 µM) 94.8% | viability, T/C (second compound 0.01 µM, first compound 3.16 µM) 97.1% | viability, T/C (second compound 0.01 µM, first compound 10 µM) 130% | viability, T/C [1] 62.2% | viability, T/C [2] 107% | viability, T/C (second compound 0.0316 µM, first compound 0.316 µM) 69% | viability, T/C (second compound 0.0316 µM, first compound 1 µM) 98.9% | viability, T/C (second compound 0.0316 µM, first compound 3.16 µM) 95.2% | viability, T/C (second compound 0.0316 µM, first compound 10 µM) 109% | viability, T/C [3] 72.9% | viability, T/C [4] 67.8% | viability, T/C (second compound 0.1 µM, first compound 0.316 µM) 63.6% | viability, T/C (second compound 0.1 µM, first compound 1 µM) 77.7% | viability, T/C (second compound 0.1 µM, first compound 3.16 µM) 75.2% | viability, T/C (second compound 0.1 µM, first compound 10 µM) 66% | viability, T/C [5] 65.5% | viability, T/C [6] 70.6% | viability, T/C (second compound 0.316 µM, first compound 0.316 µM) 78.2% | viability, T/C (second compound 0.316 µM, first compound 1 µM) 73.5% | viability, T/C (second compound 0.316 µM, first compound 3.16 µM) 77.2% | viability, T/C (second compound 0.316 µM, first compound 10 µM) 70.9% | viability, T/C [7] 69.4% | viability, T/C [8] 62.2% | viability, T/C (second compound 1 µM, first compound 0.316 µM) 56% | viability, T/C (second compound 1 µM, first compound 1 µM) 57.9% | viability, T/C (second compound 1 µM, first compound 3.16 µM) 69.9% | viability, T/C (second compound 1 µM, first compound 10 µM) 62%

CC(Nc1ccc2c(c1)OCCn1cc(N3C(=O)OCC3C(F)F)nc1-2)C(N)=O (stereo not drawn)
inactive: viability, T/C (compound 0.0316 µM) 86.9% [middle of 7 runs] | viability, T/C (compound 0.1 µM) 81.4% [middle of 7 runs] | viability, T/C (compound 0.316 µM) 67% [middle of 7 runs] | viability, T/C (compound 1 µM) 52.7% [middle of 7 runs]

CC(=O)c1c(C)c2cnc(Nc3ccc(N4CCNCC4)cn3)nc2n(C2CCCC2)c1=O + Cc1nc(NC(=O)N2CCCC2C(N)=O)sc1-c1ccnc(C(C)(C)C(F)(F)F)c1
> 100 nM: IC50 (second compound 0.0316 µM) | IC50 (second compound 0.1 µM) | IC50 (second compound 0.316 µM) | IC50 (second compound 1 µM) | IC50 (second compound 3.16 µM)
24.5 nM: IC50 (second compound 10 µM)
inactive: viability, T/C (second compound 0.0316 µM, first compound 0.000316 µM) 98.9% | viability, T/C (second compound 0.0316 µM, first compound 0.001 µM) 84.7% | viability, T/C (second compound 0.0316 µM, first compound 0.00316 µM) 101% | viability, T/C (second compound 0.0316 µM, first compound 0.01 µM) 90.7% | viability, T/C [1] 102% | viability, T/C [2] 77.3% | viability, T/C (second compound 0.1 µM, first compound 0.000316 µM) 105% | viability, T/C (second compound 0.1 µM, first compound 0.001 µM) 94.3% | viability, T/C (second compound 0.1 µM, first compound 0.00316 µM) 88.3% | viability, T/C (second compound 0.1 µM, first compound 0.01 µM) 99.4% | viability, T/C [3] 109% | viability, T/C [4] 75.6% | viability, T/C (second compound 0.316 µM, first compound 0.000316 µM) 89% | viability, T/C (second compound 0.316 µM, first compound 0.001 µM) 82.1% | viability, T/C (second compound 0.316 µM, first compound 0.00316 µM) 75% | viability, T/C (second compound 0.316 µM, first compound 0.01 µM) 82.6% | viability, T/C [5] 84.2% | viability, T/C [6] 101% | viability, T/C (second compound 1 µM, first compound 0.000316 µM) 65% | viability, T/C (second compound 1 µM, first compound 0.001 µM) 74.4% | viability, T/C (second compound 1 µM, first compound 0.00316 µM) 88.7% | viability, T/C (second compound 1 µM, first compound 0.01 µM) 79.1% | viability, T/C [7] 75.5% | viability, T/C [8] 76.3% | viability, T/C (second compound 3.16 µM, first compound 0.000316 µM) 59.4% | viability, T/C (second compound 3.16 µM, first compound 0.001 µM) 68.2% | viability, T/C (second compound 3.16 µM, first compound 0.00316 µM) 74.5% | viability, T/C (second compound 3.16 µM, first compound 0.01 µM) 57.8% | viability, T/C (second compound 3.16 µM, first compound 0.0316 µM) 63.8% | viability, T/C (second compound 3.16 µM, first compound 0.1 µM) 60.4% | viability, T/C (second compound 10 µM, first compound 0.000316 µM) 62.2% | viability, T/C (second compound 10 µM, first compound 0.001 µM) 50.8% | viability, T/C (second compound 10 µM, first compound 0.00316 µM) 57.2% | viability, T/C (second compound 10 µM, first compound 0.01 µM) 55.9% | viability, T/C (second compound 10 µM, first compound 0.0316 µM) 46.3% | viability, T/C (second compound 10 µM, first compound 0.1 µM) 47.1%
